According to patent US20260308158A1, “TARGETING RNAS ASSOCIATED WITH TAUOPATHIES WITH SMALL MOLECULES” (University of Florida Research Foundation, Incorporated, priority 2023, published 2026):

How the values were obtained:
[1] = test system: DDPAC MAPT mini-gene (exon 10 splicing); assay: 4R/3R MAPT mRNA by RT-qPCR, HeLa cells transfected with DDPAC mini-gene; assay type: cell-based
Protocol: RNA Isolation and Real-Time Quantitative PCR (RT-qPCR). HeLa cells were treated as described in the Luciferase Reporter assay to Study Exon 10 Alternative Splicing. LAN5 cells were seeded in 12-well plates at 0.2×10^6 cells per well, treated with compound or ASO, and incubated for 48 h. Compound stocks prepared in DMSO and ASO stocks prepared in water were diluted in growth medium and added to cells. Total RNA was extracted from cells and analyzed via RT-qPCR to determine levels of 3R and 4R tau mRNA. In brief, the cells were washed with 1×DPBS and then lysed in the well using 300 μL of Lysis Buffer provided in a Quick-RNA MiniPrep kit (Zymo Research), which was used to extract total RNA per the manufacturer's protocol including the on-column DNase I digestion. The concentration of total RNA was measured by NanoDrop 2000 (Thermo Fisher Scientific). Only samples with OD260/OD280>1.8 were carried forward for analysis. Reverse transcription (RT) was carried out on 200 ng of total RNA using a qScript cDNA synthesis kit (QuantaBio) in a total volume of 10 μL according to the manufacturer's protocol. […] 4R/3R ratio were analyzed using ΔΔCt method using Equation 2: […]

[2] = test system: WT I17T MAPT mini-gene (exon 10 splicing); assay: 4R/3R MAPT mRNA by RT-qPCR, HeLa cells transfected with WT I17T mini-gene; assay type: cell-based
Protocol: (§1) RNA Isolation and Real-Time Quantitative PCR (RT-qPCR). HeLa cells were treated as described in the Luciferase Reporter assay to Study Exon 10 Alternative Splicing. LAN5 cells were seeded in 12-well plates at 0.2×10^6 cells per well, treated with compound or ASO, and incubated for 48 h. Compound stocks prepared in DMSO and ASO stocks prepared in water were diluted in growth medium and added to cells. Total RNA was extracted from cells and analyzed via RT-qPCR to determine levels of 3R and 4R tau mRNA. In brief, the cells were washed with 1×DPBS and then lysed in the well using 300 μL of Lysis Buffer provided in a Quick-RNA MiniPrep kit (Zymo Research), which was used to extract total RNA per the manufacturer's protocol including the on-column DNase I digestion. The concentration of total RNA was measured by NanoDrop 2000 (Thermo Fisher Scientific). Only samples with OD260/OD280>1.8 were carried forward for analysis. Reverse transcription (RT) was carried out on 200 ng of total RNA using a qScript cDNA synthesis kit (QuantaBio) in a total volume of 10 μL according to the manufacturer's protocol. An Applied Biosystems QS5 384-well PCR system was used to complete qPCR reactions with Power SYBR Green Master Mix (Life Technologies), 600 nM each primer (Table S3), 20 ng of cDNA (1 μL of the RT reaction), in a total volume of 33 μL. Technical triplicates (10 μL each) were aliquoted into 384-well qPCR plates (Applied biosystems, 4483285). Subsequent qPCR analysis was performed using an Applied Biosystems QS5 384-well PCR system (software v.1.3.0). 4R/3R ratio were analyzed using ΔΔCt method using Equation 2: […]
(§2) where ΔCt 4R or ΔCt 3R is the difference between the Ct values for the 4R or 3R MAPT mRNA and a housekeeping gene (18S rRNA) in total RNA from cells.

[3] = test system: MAPT exon 10 splicing in LAN5 cells; assay: 4R/3R endogenous MAPT mRNA by RT-qPCR in LAN5 neuroblastoma cells; assay type: cell-based
Protocol: as §1, §2

WT SRE RNA = assay: In vitro competitive Chem-CLIP (C-Chem-CLIP), WT SRE RNA; details: 3 at 1.5 μM, read-out: IC50, competition of the binding of 3
Protocol: In Vitro Chemical Cross-linking and Isolation by Pull Down (Chem-CLIP) and Competitive Chem-CLIP (C-Chem-CLIP). Growth medium [Dulbecco's modified eagle medium (DMEM; corning, 10-013-CM) with 1× Glutagro (corning)] and 10% (v/v) fetal bovine serum (FBS; Sigma, 12003C) was inactivated by heating at 95° C. for 15 min and slowly cooling to room temperature. Approximately 10,000 counts of 32P 5′-end labeled tau WT, DDPAC, WT+I17T, or DDPAC+I17T RNA were folded in 10 μL growth medium by heating at 65° C. for 5 min and slowly cooling to room temperature. Chem-CLIP probe 3 or negative control probe 4 was then added into the folded RNA in a total volume of 20 μL, and the mixtures were incubated at 37° C. for 1 h. For C-Chem-CLIP, dilutions of competing compound 2 were incubated with RNA for 30 min before adding 3. […]
The Chem-CLIP probe 3 or control probe 4 was then clicked to disulfide biotin azide (2 μL of 10 mM solution prepared in DMSO solution per sample; Click Chemistry Tools, catalog no. 1168-10). […] The radioactive signal from bound RNAs (on the beads) and unbound RNAs (in the wash buffer) was measured by using a Beckman Coulter LS6500 Liquid Scintillation Counter as Rbound and Runbound. Enrichment was calculated as the percentage of radiolabeled RNA captured by beads calculated as Rbound/(Rbound+Runbound).

IC50 (WT SRE RNA): ~2 µM
Structure (SMILES): COc1cc(N)ncc1CCCN(C)CCCn1cnc2c3ccccc3n(C)c2c1=O [Compound 2, 3-(3-((3-(6-amino-4-methoxypyridin-3-yl)propyl)(methyl)amino)propyl)-5-methyl-3,5-dihydro-4H-pyrimido[5,4-b]indol-4-one]
PSI10 (PSI of MAPT exon 10) vs vehicle ([1]; HeLa, DDPAC mini-gene): downregulated | inhibition at 1.5 µM ([1]; Homo sapiens, 2 at 1.5 μM, 48 h, HeLa DDPAC mini-gene, read-out: reduction of 4R/3R ratio (mRNA)): 42 ± 3% | PSI10 (PSI of MAPT exon 10) vs vehicle [2]: not WT I17T or DDPAC I17T mutant | change in 4R/3R ratio (not statistically significant) ([2]; 1 at 10 μM or 2 at 1.5 μM): < 16% | inhibition at 1.5 µM ([3]; LA-N-5, 2 at 1.5 μM, LAN5, 48 h, RT-qPCR, read-out: reduction of 4R/3R ratio of MAPT RNA): 56 ± 4% | PSI10 (PSI of MAPT exon 10) vs vehicle ([3]; LAN5 cells): downregulated
